# In the METLIN SMRT retention time set (Domingo-Almenara et al. 2019):
# Assay: gradient 5% acetonitrile 3 min, to 50% in 2 min, to 85% in 15 min, held 3 min, 100 µL/min
# Conditions: column: Zorbax Extend-C18 2.1 x 50 mm; eluents: water / acetonitrile, 0.1% formic acid
# Summary of the method: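 Data were gathered over 3 months by HPLC coupled to a quadrupole time-of-flight mass spectrometer, operated in positive and negative ionization mode. Mixtures of ~100 pure standards ran on a Zorbax Extend-C18 column (2.1 × 50 mm, 1.8 μm) at 100 μL/min, with water and acetonitrile each containing 0.1% formic acid and dead and dwell volumes of 40 μL and 900 μL. Retention time was read from adduct peaks picked by computer and checked manually.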
row,RP-LC retention time [s],SMILES
1,637,O=C(c1ccc(=O)oc1)N1CCN(Cc2nc(-c3ccccc3)cs2)CC1
2,1040,COc1cc(CNS(=O)(=O)c2cccc(-c3nc(-c4ccccc4)no3)c2)cc(OC)c1OC
3,694,O=C(Nc1cnc(N2CCN(CCOc3ccc(Cl)cc3)CC2)c(C(=O)O)c1)c1ccc(F)cc1
4,597,COCCN1CCC2(CC1)CN(Cc1cc(OC)ccc1OC)Cc1ccccc1O2
5,603,CC(C)NC(=O)N1CCCC1c1noc(CCC(=O)NC2CC2)n1 (stereo not given)
6,863,Cc1nc(CC(=O)Nc2nc(-c3ccc(F)cc3)cs2)cs1
7,782,CC1CCC(C(=O)Nc2cc3c(cc2N2CCOCC2)n(C)c(=O)c(=O)n3C)CC1 (stereo not given)
8,639,O=C(Cn1cnc2ccccc21)OCc1cc(-c2ccc3c(c2)OCO3)on1
9,874,COc1ccc(-c2noc(-c3nn(-c4cccc(F)c4)ccc3=O)n2)cc1
10,596,O=C1CCCN1CCCN1C(=O)[C@H]2CN(Cc3ccccc3Cl)C[C@H]2C1=O
11,889,COc1ccccc1C(=O)Nc1nc(-c2ccc3c(c2)NC(=O)CO3)c(C)s1
12,963,CCn1nnc2ccc(-c3noc(-c4ccc(OC)c(OC)c4)n3)cc21
13,1020,Cc1cccc(-c2noc(-c3sc4ncn(CC(=O)N5CCCC5)c(=O)c4c3C)n2)c1
14,916,Cc1ccc2[nH]cc(CCN3CC(C(=O)Nc4ccc(Br)cc4)CC3=O)c2c1 (stereo not given)
15,1150,COc1ccc(CNS(=O)(=O)c2c(C)sc(C)c2-c2cc(C(F)(F)F)on2)cc1
16,639,COC1C(=O)N(CC2CC2)C12CCN(C(=O)C1CC1)CC2 (stereo not given)

row,RP-LC retention time [s],SMILES
1,686,Cc1cc(C)n2nc(SCC(=O)Nc3ccccc3[N+](=O)[O-])nc2n1
2,920,O=c1c2c(CO)c(-c3ccccc3)nn2ccn1Cc1cccc(F)c1
3,833,CCCn1cc(CCNC(=O)c2ccc(Cl)s2)c2cccnc21
4,825,Cc1cc(C)cc(-n2c(SCC(=O)Nc3nc(C)cs3)nc3c(c2=O)SCC3)c1
5,588,CCCN1C(=O)C(CC(=O)NCCN(C)C)Sc2ncccc21 (stereo not given)
6,941,CCc1nn2c(CNS(=O)(=O)c3cc(C)cc(C)c3)c(-c3ccccc3)nc2s1
7,663,CNC(=O)C1CCCN(c2nc3ncn(CC(=O)Nc4ccccc4C(F)(F)F)c(=O)c3s2)C1 (stereo not given)
8,793,COc1ccc(-c2nc3cnccn3c2Nc2ccccc2C)cc1OC
9,735,Cc1oc2c(C)c3oc(=O)c(CC(=O)N4CCC(C(N)=O)CC4)c(C)c3cc2c1C
10,589,Cn1c(N2CCCC(C(=O)NCC3CCN(CCc4cccs4)CC3)C2)cc(=O)n(C)c1=O (stereo not given)
11,673,COc1cccc(CNC(=O)Nc2c(-c3cccc(C)c3)nc3ccccn23)c1
12,595,Cc1cc(C(=O)Nc2nc3c(s2)CN(C(=O)c2cccn(C)c2=O)CC3)no1
13,756,O=C1NC2(CCN(C(=O)c3cccc(F)c3)CC2)Nc2c(Cl)cccc21
14,688,COc1ccc(OC)c(CNC(=O)c2c(C)sc3ccn(C)c(=O)c23)c1
15,989,CSc1cccc(NC(=O)N2CCCC(C)(C(=O)NCc3ccc(C)cc3)C2)c1 (stereo not given)
16,674,O=C(NCc1ccc(F)cc1)Nc1cccc(-c2ccc(N3CCOCC3)nn2)c1

# Further lines, the compound ahead of its results:
row,SMILES,RP-LC retention time [s]
1,Cc1ccc(S(=O)(=O)N2CCC(n3cnc4c(C)cccc4c3=O)CC2)cc1,929
2,CCc1cc(C(=O)NCc2ccc(C)o2)nc2cc(-c3ccccn3)nn12,778
3,Cc1ccc(Cn2c(N3CCCC(C(=O)Nc4cccc(C)c4)C3)nc3ccsc3c2=O)cc1 (stereo not given),1080
4,Cc1ccc(C)c(N2CCN(c3ccnc(SCC(=O)Nc4ccc(Cl)cc4F)n3)CC2)c1,1140
5,CC1Cc2ccccc2N1C(=O)CCn1c(=O)sc2ccccc21 (stereo not given),923
6,O=C(CCc1c(-c2ccc(F)cc2)nc2ccccn12)Nc1cccc(C(F)(F)F)c1,752
7,CCC(=O)Nc1ccc2c(c1)CCC(=O)N2CCOC,618
8,Cc1nccn1Cc1nc(-c2cccc(F)c2)no1,607
9,CC1CCCN(c2ccc(-c3noc(CN4CCC(C(N)=O)CC4)n3)cn2)C1 (stereo not given),589
10,COC(=O)c1cc(OCC(=O)NCc2ccc3c(c2)OCO3)c2cc(F)ccc2n1,785
11,CCc1ccc(C2=C(C)C(N3CCC(NC(=O)CCOC)CC3)=NS2(=O)=O)cc1,761
12,COc1ccccc1N1C(=O)CC(N2CCC(C(N)=O)CC2)C1=O (stereo not given),547
13,Cn1cc(C(=O)NCc2ccccc2F)c(S(=O)(=O)N2CCSCC2)n1,865
14,O=C(Nc1cccc(F)c1)Nc1ccc2nncn2c1,686
15,CC(C)n1c(-c2cccc(C(=O)NCc3cccs3)c2)nc2cccnc21,787
16,Cc1nc(-c2csc(S(=O)(=O)N3CCC(C(=O)NC4CCCC4)CC3)c2)no1,826
17,CCC(c1cccs1)N1C(=O)[C@H]2CN(S(=O)(=O)Cc3ccccc3)C[C@H]2C1=O (stereo not given in full),964

row,SMILES,RP-LC retention time [s]
1,CCc1ccccc1NC(=O)c1cc(C)n2nccc2n1,1030
2,Cc1ccc(C2NC(=O)N(CC(=O)Nc3ccc(Br)cc3F)C3=C2C(=O)OC3)cc1 (stereo not given),861
3,CCCCC(=O)Nc1cc(C(=O)O)ccc1N(C)CC1COCCO1 (stereo not given),756
4,CCOc1ccc(-c2noc(Cn3ncn4nc(-c5ccc(OC)cc5)cc4c3=O)n2)cc1OC,1040
5,CCN(CC)c1ccc(NS(=O)(=O)c2cc(-c3nc(C)cs3)sc2C)c(C)c1,750
6,Cc1c(C(=O)C(=O)Nc2ccccc2C(N)=O)c2ccccc2n1C,796
7,N#Cc1ccc(C(=O)NCC(=O)N2CCCc3ccccc32)c(F)c1,843
8,CCC(C(=O)Nc1cc(-c2cn3nc(OC)ccc3n2)ccc1F)c1ccccc1 (stereo not given),916
9,COc1ccc(-c2csc(NC(=O)Cc3csc(C)n3)n2)cc1,828
10,CC1CCC(NC(=O)c2cn(-c3ccc(NC(=O)C4CC4)cn3)cn2)CC1 (stereo not given),790
11,CCN(C(=O)CN1C(=O)NC(c2ccc(Cl)cc2)C2=C1COC2=O)c1ccccc1 (stereo not given),834
12,COc1cccc(N2C(=O)C3N=NN(Cc4nc(-c5ccc(C)cc5)no4)C3C2=O)c1 (stereo not given),990
13,O=C(Cc1cccn1-c1cccc(Cl)c1)NCc1ccc(N2CCOCC2)cc1,890
14,Cc1cccc(NC(=O)NC2CCN(C(=O)N3C[C@@H]4C[C@H](C3)[C@H]3CCCC(=O)N3C4)CC2)c1,669
15,CC1CN(Cc2nc3c(c(=O)n(C)c(=O)n3C)n2Cc2ccc(Br)cc2)CC(C)O1 (stereo not given),755
16,CCOc1ccc(S(=O)(=O)N2CCC(C(=O)NCCCOC)CC2)cc1C,789
